System: patients with uterine fibroids and adenomyosis or endometriosis
Assay: Clinical study: 5 mg or 10 mg ulipristal on pain in patients with adenomyosis or endometriosis (Example 2)
Assay type: in vivo, human
Set-up: key to PBAC score at the end of treatment (week 13): PBAC score; normal <75, >100 menorrhagia; higher is worse; key to A(SF-MPQ) Score: SF-MPQ Part A pain score; lower score is better; key to B(VAS) Score / B(VAS) CFB: SF-MPQ Part B VAS pain score; lower score is better
Procedure: Different parameters were assessed before treatment (Baseline) and after the end of treatment (13 weeks): • The PBAC score (Pictorial Blood Loss Assessment Chart) gives an estimation of the menstrual blood loss. This score was measured before treatment and continuing up to week 13 of treatment. Normal menstrual bleeding score is <75. Abnormal bleeding (menorrhagia) is characterized by a PBAC score >100. Higher the score, worse is the bleeding. • The Uterine volume was estimated before treatment (Baseline Uterine volume) and the % change in uterine volume was reported at the end of the treatment (week 13). • The SF-M P QPart A (short form of the Mc Gill Pain questionnaire) was used as a measure of the sensory, affective and intensity dimensions of pain. The pain was estimated before treatment and the change was reported at the end of the treatment (week 13). (NOTE: The lowest is the score, the better it is). • The SF-MPQ Part B (short form of the Mc Gill Pain questionnaire) wherein the pain is assessed with a visual analogue scale (VAS) before treatment and the change was reported at the end of the treatment (week 13). (NOTE: The lowest is the score, the better it is). • Discomfort questionnaire (disease specific quality of life questionnaire) estimating the quality of life before treatment and the change was reported at the end of the treatment (week 13). (NOTE: The lowest is the score, the better it is). • The level of Hb (Hemoglobin) was measured before treatment and at the end of the treatment. (NOTE: the higher it is, the better it is.) 3. Results
A double-blinded, randomized, study evaluating the effect of long term oral administration of 5 mg or 10 mg ulipristal in patients with heavy menstrual bleeding and pain.
The control group consisted of patients treated with GnRH agonist.
These patients included women 36 years of age or older with evidence of uterine fibroids and adenomyosis or endometriosis diagnosed by ultrasound.
Patient 210/5252 (candidate having adenomyosis) received a daily dose of 5 mg ulipristal (Esmya®) for 13 weeks and was followed up to week 38. A myomectomy by laparotomy was conducted after Week 13 visit.
Patient 281/5214 (candidate having endometriosis) received a daily dose of 5 mg ulipristal (Esmya®) for 13 weeks and was followed up to week 38.
Patient 210/5095 (candidate having adenomyosis) received a daily dose of 10 mg ulipristal (Esmya®) for 13 weeks and was followed up to week 38. A hysterectomy by laparoscopy was conducted after Week 13 visit.
Patient 210/5308 (candidate having endometriosis) received a daily dose of 10 mg ulipristal (Esmya®) for 13 weeks and was followed up to week 38. A myomectomy by hysteroscopy was conducted after Week 13 visit.
A myomectomy by laparoscopy and hysteroscopy was conducted between Week 26 & 38 visits.
Patient 250/5090 (candidate having endometrioma) received a daily dose of 10 mg ulipristal (Esmya®) for 13 weeks and was followed up to week 38.

[1] = 5 mg/day 13 weeks, patient 210/5252, adenomyosis, Week 5
[2] = 5 mg/day 13 weeks, patient 210/5252, adenomyosis, Week 13
[3] = 5 mg/day 13 weeks, patient 210/5252, adenomyosis, Week 26 follow-up, myomectomy by laparotomy after Week 13
[4] = 5 mg/day 13 weeks, patient 210/5252, adenomyosis, Week 38 follow-up, myomectomy by laparotomy after Week 13
[5] = 5 mg/day 13 weeks, patient 210/5252, adenomyosis, week 9
[6] = 5 mg/day 13 weeks, patient 281/5214, endometriosis, Week 5
[7] = 5 mg/day 13 weeks, patient 281/5214, endometriosis, Week 13
[8] = 5 mg/day 13 weeks, patient 281/5214, endometriosis, Week 17 follow-up, no surgery
[9] = 5 mg/day 13 weeks, patient 281/5214, endometriosis, Week 26 follow-up, no surgery
[10] = 5 mg/day 13 weeks, patient 281/5214, endometriosis, Week 38 follow-up, no surgery
[11] = 5 mg/day 13 weeks, patient 281/5214, endometriosis, week 9
[12] = 10 mg/day 13 weeks, patient 210/5095, adenomyosis, Week 5
[13] = 10 mg/day 13 weeks, patient 210/5095, adenomyosis, Week 13
[14] = 10 mg/day 13 weeks, patient 210/5095, adenomyosis, Week 17 follow-up, hysterectomy by laparoscopy after Week 13
[15] = 10 mg/day 13 weeks, patient 210/5095, adenomyosis, Week 26 follow-up, hysterectomy by laparoscopy after Week 13
[16] = 10 mg/day 13 weeks, patient 210/5095, adenomyosis, Week 38 follow-up, hysterectomy by laparoscopy after Week 13
[17] = 10 mg/day 13 weeks, patient 210/5095, adenomyosis, week 9
[18] = patient 210/5095, 10 mg, adenomyosis and uterine fibroids

## CC(=O)O[C@]1(C(C)=O)CC[C@H]2[C@@H]3CCC4=CC(=O)CCC4=C3[C@@H](c3ccc(N(C)C)cc3)C[C@@]21C [Ulipristal, 17α-acetoxy-11β-[4-N,N-dimethylamino-phenyl)-19-norpregna-4,9-diene-3,20-dione]
[1]
  A(SF-MPQ) CFB: −2
  A(SF-MPQ) Score: 14
  B(VAS) CFB: 21
  B(VAS) Score: 64
  PBAC CFB: 150
  PBAC Score: 375
[2]
  % Change in Uterine Volume: 6.6%
  A(SF-MPQ) CFB: −3
  A(SF-MPQ) Score: 9
  B(VAS) CFB: −6
  B(VAS) Score: 37
  PBAC CFB: −101
  PBAC Score: 124
  Uterine Volume: 251.7 cm3
[3]
  A(SF-MPQ) CFB: −4
  A(SF-MPQ) Score: 8
  B(VAS) CFB: 24
  B(VAS) Score: 67
  PBAC CFB: 530
  PBAC Score: 755
[4]
  A(SF-MPQ) CFB: −3
  A(SF-MPQ) Score: 9
  B(VAS) CFB: 27
  B(VAS) Score: 70
  PBAC CFB: 46
  PBAC Score: 271
[5]
  A(SF-MPQ) CFB: −1
  A(SF-MPQ) Score: 11
  B(VAS) CFB: 14
  B(VAS) Score: 57
  PBAC CFB: 58
  PBAC Score: 283
[6]
  A(SF-MPQ) CFB: −3
  A(SF-MPQ) Score: 1
  B(VAS) CFB: −17
  B(VAS) Score: 3
  PBAC CFB: −174
  PBAC Score: 46
[7]
  % Change in Uterine Volume: 21.3%
  A(SF-MPQ) CFB: −4
  A(SF-MPQ) Score: 0
  B(VAS) CFB: −20
  B(VAS) Score: 0
  PBAC CFB: −220
  PBAC Score: 0
  Uterine Volume: 159.1 cm3
[8]
  % Change in Uterine Volume: 12.6%
  Uterine Volume: 147.7 cm3
[9]
  % Change in Uterine Volume: −21.2%
  B(VAS) CFB: 53
  B(VAS) Score: 73
  PBAC CFB: −168
  PBAC Score: 52
  Uterine Volume: 102.2 cm3
[10]
  % Change in Uterine Volume: −24.6%
  A(SF-MPQ) CFB: −4
  A(SF-MPQ) Score: 0
  B(VAS) CFB: −20
  B(VAS) Score: 0
  PBAC CFB: 351
  PBAC Score: 571
  Uterine Volume: 98.9 cm3
[11]
  A(SF-MPQ) CFB: −4
  A(SF-MPQ) Score: 0
  B(VAS) CFB: −20
  B(VAS) Score: 0
  PBAC CFB: −220
  PBAC Score: 0
[12]
  A(SF-MPQ) CFB: 14
  A(SF-MPQ) Score: 0
  B(VAS) CFB: −88
  B(VAS) Score: 0
  PBAC CFB: −532
  PBAC Score: 328
[13]
  % Change in Uterine Volume: −33.8%
  A(SF-MPQ) CFB: −14
  A(SF-MPQ) Score: 0
  B(VAS) CFB: −88
  B(VAS) Score: 0
  PBAC CFB: −860
  PBAC Score: 0
  Uterine Volume: 284.7 cm3
[14]
  A(SF-MPQ) CFB: −14
  A(SF-MPQ) Score: 0
[15]
  A(SF-MPQ) CFB: −14
  A(SF-MPQ) Score: 0
  B(VAS) CFB: −88
  B(VAS) Score: 0
  PBAC Score: 0
[16]
  A(SF-MPQ) CFB: −14
  A(SF-MPQ) Score: 0
  B(VAS) CFB: −88
  B(VAS) Score: 0
[17]
  A(SF-MPQ) CFB: 14
  A(SF-MPQ) Score: 0
  B(VAS) CFB: −88
  B(VAS) Score: 0
  PBAC CFB: −860
  PBAC Score: 0
3 of 4 patients (210/5095, 210/5308, 250/5090), 10 mg
  uterine volume at week 13 compared to baseline: decrease in uterine volume
[18]
  bleeding starting from week 9: did not bleed anymore
  pain starting from 5th week: no pain anymore
Patient 210/5308, 10 mg/day 13 weeks, endometriosis
  PBAC value at week 13: 55
Patients 281/5214, 210/5095, 210/5308, 250/5090, 5 mg or 10 mg
  pain at week 5, 9, 13 compared to baseline: improvement in pain
Patients 281/5214, 210/5095, 250/5090, 5 mg or 10 mg
  PBAC score at the end of treatment (week 13): 0
